Test results published in US20210355104A1, “ADENOSINE RECEPTOR BINDING COMPOUNDS” (Nikang Therapeuticsm Inc., priority 2018, published 2021).
Where “and” joins values, the source holds several entries; their conditions need not be identical. Equal values may be shown once.

target: Adenosine A2A receptor (Homo sapiens, UniProt P29274); experiment: cAMP assay in 293A cells stably expressing the adenosine A2A receptor (CGS21680 stimulation, HTRF); type: cell-based; design: expressed in transfected cells; host or cells: 293A cells (Invitrogen, Cat# R705-07) infected with A2A-expressing lentivirus (custom packaged by Biosettia), puromycin selected; settings: 293A cells stably expressing A2A receptor; 0.1% BSA; 1 uM CGS21680 stimulation; replicate values separated by /; read-out: cAMP (nM) 0.1% BSA, 1 uM CGS
Sequence (P29274 whole entry): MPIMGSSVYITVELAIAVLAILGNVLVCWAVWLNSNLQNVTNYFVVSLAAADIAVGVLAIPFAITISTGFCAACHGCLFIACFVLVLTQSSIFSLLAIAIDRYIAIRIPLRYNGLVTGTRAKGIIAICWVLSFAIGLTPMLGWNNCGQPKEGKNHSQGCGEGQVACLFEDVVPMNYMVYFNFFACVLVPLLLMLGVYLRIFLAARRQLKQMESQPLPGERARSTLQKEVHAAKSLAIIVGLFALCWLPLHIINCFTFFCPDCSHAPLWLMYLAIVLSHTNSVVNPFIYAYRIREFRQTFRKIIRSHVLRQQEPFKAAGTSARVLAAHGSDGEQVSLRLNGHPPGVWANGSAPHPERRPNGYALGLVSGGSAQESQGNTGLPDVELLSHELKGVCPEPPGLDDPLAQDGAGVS

Row | IC50 | Compound
1 | 869 nM and 634 nM | Cc1cc(-c2c(OCc3nc4cccc(C(C)(C)O)c4n3C)nc(N)nc2-c2ccc(F)cc2)cc(C(F)F)n1 [Example 396, 2-(2-(((2-amino-5-(2-(difluoromethyl)-6-methylpyridin-4-yl)-6-(4-fluorophenyl)pyrimidin-4-yl)oxy)methyl)-1-methyl-1H-benzo[d]imidazol-7-yl)propan-2-ol]
2 | 9.4 nM and 32 nM and 26 nM and 17 nM | Cc1cc(-c2c(COc3cccc(C(C)C)n3)nc(N)nc2-c2ccc(F)cc2)cc(C(F)F)n1 [Example 397, 5-(2-(difluoromethyl)-6-methylpyridin-4-yl)-4-(4-fluorophenyl)-6-(((6-isopropylpyridin-2-yl)oxy)methyl)pyrimidin-2-amine]
3 | 1000 nM and 1470 nM and 1440 nM | Cc1cc(-c2c(OCc3cccc(C(C)(C)c4nn[nH]n4)n3)nc(N)nc2-c2ccc(F)cc2)cc(C(F)F)n1 [Example 400, 4-((6-(2-(2H-tetrazol-5-yl)propan-2-yl)pyridin-2-yl)methoxy)-5-(2-(difluoromethyl)-6-methylpyridin-4-yl)-6-(4-fluorophenyl)pyrimidin-2-amine]
4 | 318 nM and 246 nM and 259 nM | Cc1cc(-c2c(OCc3nc(C(C)(C)O)cn3C)nc(N)nc2-c2ccc(F)cc2)cc(C(F)F)n1 [Example 401, 2-(2-(((2-amino-5-(2-(difluoromethyl)-6-methylpyridin-4-yl)-6-(4-fluorophenyl)pyrimidin-4-yl)oxy)methyl)-1-methyl-1H-imidazol-4-yl)propan-2-ol]
5 | 1370 nM and 1800 nM | Cc1cc(-c2c(OCc3nc(C(C)(C)O)cc4ccccc34)nc(N)nc2-c2ccc(F)cc2)cc(C(F)F)n1 [Example 404, 2-(1-(((2-amino-5-(2-(difluoromethyl)-6-methylpyridin-4-yl)-6-(4-fluorophenyl)pyrimidin-4-yl)oxy)methyl)isoquinolin-3-yl)propan-2-ol]
6 | 619 nM | Cc1cc(-c2c(OCc3nc(OCC(=O)O)cc4ccccc34)nc(N)nc2-c2ccc(F)cc2)cc(C(F)F)n1 [Example 405, 2-((1-(((2-amino-5-(2-(difluoromethyl)-6-methylpyridin-4-yl)-6-(4-fluorophenyl)pyrimidin-4-yl)oxy)methyl)isoquinolin-3-yl)oxy)acetic acid]
7 | 719 nM | Cc1cc(-c2c(OCc3nc(NCC(=O)O)cc4ccccc34)nc(N)nc2-c2ccc(F)cc2)cc(C(F)F)n1 [Example 406, (1-(((2-amino-5-(2-(difluoromethyl)-6-methylpyridin-4-yl)-6-(4-fluorophenyl)pyrimidin-4-yl)oxy)methyl)isoquinolin-3-yl)glycine]
8 | 977 nM and 822 nM | Cc1cc(-c2c(OCc3cccc(CNS(C)(=O)=O)n3)nc(N)nc2-c2ccc(F)cc2)cc(C(F)F)n1 [Example 409, N-((6-(((2-amino-5-(2-(difluoromethyl)-6-methylpyridin-4-yl)-6-(4-fluorophenyl)pyrimidin-4-yl)oxy)methyl)pyridin-2-yl)methyl) methanesulfonamide]
9 | 3190 nM | Cc1cc(-c2c(OCc3cccc(NS(C)(=O)=O)n3)nc(N)nc2-c2ccc(F)cc2)cc(C(F)F)n1 [Example 411, N-(6-(((2-amino-5-(2-(difluoromethyl)-6-methylpyridin-4-yl)-6-(4-fluorophenyl)pyrimidin-4-yl)oxy)methyl)pyridin-2-yl)methanesulfonamide]
10 | 503 nM and 747 nM | Cc1cc(-c2c(OCc3cccc(CN)n3)nc(N)nc2-c2ccc(F)cc2)cc(C(F)F)n1 [Example 412, 4-((6-(aminomethyl)pyridin-2-yl)methoxy)-5-(2-(difluoromethyl)-6-methylpyridin-4-yl)-6-(4-fluorophenyl)pyrimidin-2-amine]
11 | 2050 nM | Cc1cc(-c2c(OCc3cccc(CNCC(=O)O)n3)nc(N)nc2-c2ccc(F)cc2)cc(C(F)F)n1 [Example 414, ((6-(((2-amino-5-(2-(difluoromethyl)-6-methylpyridin-4-yl)-6-(4-fluorophenyl)pyrimidin-4-yl)oxy)methyl)pyridin-2-yl)methyl)glycine]
12 | 498 nM and 615 nM | Cc1cc(-c2c(OCc3nccc4c3nnn4C)nc(N)nc2-c2ccc(F)cc2)cc(C(F)F)n1 [Example 416, 5-(2-(difluoromethyl)-6-methylpyridin-4-yl)-4-(4-fluorophenyl)-6-((1-methyl-1H-[1,2,3]triazolo[4,5-c]pyridin-4-yl)methoxy)pyrimidin-2-amine]
13 | 3420 nM | Cc1cc(-c2c(OCc3cc(C(C)(C)O)cc(C(C)(C)O)n3)nc(N)nc2-c2ccc(F)cc2)cc(C(F)F)n1 [Example 421, 2,2′-(6-(((2-amino-5-(2-(difluoromethyl)-6-methylpyridin-4-yl)-6-(4-fluorophenyl)pyrimidin-4-yl)oxy)methyl)pyridine-2,4-diyl)bis(propan-2-ol)]
14 | 435 nM and 732 nM | Cc1cc(-c2c(OCc3nccc4c3cnn4C)nc(N)nc2-c2ccc(F)cc2)cc(C(F)F)n1 [Example 423, 5-(2-(difluoromethyl)-6-methylpyridin-4-yl)-4-(4-fluorophenyl)-6-((1-methyl-1H-pyrazolo[4,3-c]pyridin-4-yl)methoxy)pyrimidin-2-amine]

same assay, conditions: 293A-A2AR cells, 0.1% BSA, 1 uM CGS; read-out: cAMP (nM) 0.1% BSA, 1 uM CGS

Row | IC50 | Compound
15 | 21100 nM | Cc1cc(-c2c(OCc3ccc(C)c(C(C)(C)C(=O)O)n3)nc(N)nc2-c2ccc(F)cc2)cc(C(F)F)n1 [Example 377, 2-(6-(((2-amino-5-(2-(difluoromethyl)-6-methylpyridin-4-yl)-6-(4-fluorophenyl)pyrimidin-4-yl)oxy)methyl)-3-methylpyridin-2-yl)-2-methylpropanoic acid]
16 | 430 nM and 173 nM and 247 nM | Cc1cc(-c2c(OCc3ncc(C(C)(C)O)n3C)nc(N)nc2-c2ccc(F)cc2)cc(C(F)F)n1 [Example 378, 2-(2-(((2-amino-5-(2-(difluoromethyl)-6-methylpyridin-4-yl)-6-(4-fluorophenyl)pyrimidin-4-yl)oxy)methyl)-1-methyl-1H-imidazol-5-yl)propan-2-ol]
17 | 548 nM and 469 nM and 502 nM | Cc1cc(-c2c(OCc3ccc4ccccc4n3)nc(N)nc2-c2ccc(F)cc2)cc(C(F)F)n1 [Example 380, 5-(2-(difluoromethyl)-6-methylpyridin-4-yl)-4-(4-fluorophenyl)-6-(quinolin-2-ylmethoxy)pyrimidin-2-amine]
18 | 955 nM | Cc1cc(-c2c(OCc3cc4ccccc4cn3)nc(N)nc2-c2ccc(F)cc2)cc(C(F)F)n1 [Example 382, 5-(2-(difluoromethyl)-6-methylpyridin-4-yl)-4-(4-fluorophenyl)-6-(isoquinolin-3-ylmethoxy)pyrimidin-2-amine]
19 | 1010 nM | Cc1cc(-c2c(OCc3cccc(C(C)(C)N)n3)nc(N)nc2-c2ccc(F)cc2)cc(C(F)F)n1 [Example 383, 4-((6-(2-aminopropan-2-yl)pyridin-2-yl)methoxy)-5-(2-(difluoromethyl)-6-methylpyridin-4-yl)-6-(4-fluorophenyl)pyrimidin-2-amine]
20 | 15400 nM | Cc1cc(-c2c(OCc3cccc(C#CC(C)(C)C(=O)O)n3)nc(N)nc2-c2ccc(F)cc2)cc(C(F)F)n1 [Example 384, 4-(6-(((2-amino-5-(2-(difluoromethyl)-6-methylpyridin-4-yl)-6-(4-fluorophenyl)pyrimidin-4-yl)oxy)methyl)pyridin-2-yl)-2,2-dimethylbut-3-ynoic acid]
21 | 3820 nM | Cc1cc(-c2c(OCc3nccn3CCCC(=O)O)nc(N)nc2-c2ccc(F)cc2)cc(C(F)F)n1 [Example 386, 4-(2-(((2-amino-5-(2-(difluoromethyl)-6-methylpyridin-4-yl)-6-(4-fluorophenyl)pyrimidin-4-yl)oxy)methyl)-1H-imidazol-1-yl)butanoic acid]
22 | 16300 nM | Cc1cc(-c2c(OCc3cn(C(C)(C)C(=O)O)cn3)nc(N)nc2-c2ccc(F)cc2)cc(C(F)F)n1 [Example 387, 2-(4-(((2-amino-5-(2-(difluoromethyl)-6-methylpyridin-4-yl)-6-(4-fluorophenyl)pyrimidin-4-yl)oxy)methyl)-1H-imidazol-1-yl)-2-methylpropanoic acid]
23 | 7660 nM | Cc1cc(-c2c(OCc3ccn(C(C)(C)C(=O)O)n3)nc(N)nc2-c2ccc(F)cc2)cc(C(F)F)n1 [Example 388, 2-(3-(((2-amino-5-(2-(difluoromethyl)-6-methylpyridin-4-yl)-6-(4-fluorophenyl)pyrimidin-4-yl)oxy)methyl)-1H-pyrazol-1-yl)-2-methylpropanoic acid]
24 | 85 nM and 98 nM and 51 nM | CCC(C#N)(CC)c1cccc(COc2nc(N)nc(-c3ccc(F)cc3)c2-c2cc(C)nc(C(F)F)c2)n1 [Example 390, 2-(6-(((2-amino-5-(2-(difluoromethyl)-6-methylpyridin-4-yl)-6-(4-fluorophenyl)pyrimidin-4-yl)oxy)methyl)pyridin-2-yl)-2-ethylbutanenitrile]
25 | 628 nM and 597 nM and 892 nM and 826 nM and 566 nM and 686 nM | Cc1cc(-c2c(OCc3cccc(C(C)(C)NCC(=O)O)n3)nc(N)nc2-c2ccc(F)cc2)cc(C(F)F)n1 [Example 393, (2-(6-(((2-amino-5-(2-(difluoromethyl)-6-methylpyridin-4-yl)-6-(4-fluorophenyl)pyrimidin-4-yl)oxy)methyl)pyridin-2-yl)propan-2-yl)glycine]
26 | 865 nM and 496 nM | Cc1cc(-c2c(OCc3cccc(C(C)(O)C(=O)O)n3)nc(N)nc2-c2ccc(F)cc2)cc(C(F)F)n1 (stereo not drawn) [Example 394, 2-(6-(((2-amino-5-(2-(difluoromethyl)-6-methylpyridin-4-yl)-6-(4-fluorophenyl)pyrimidin-4-yl)oxy)methyl)pyridin-2-yl)-2-hydroxypropanoic acid]
27 | > 50000 nM | Cc1cc(-c2c(OCc3ncc(C(C)(O)C(=O)O)n3C)nc(N)nc2-c2ccc(F)cc2)cc(C(F)F)n1 (stereo not drawn) [Example 395, 2-(2-(((2-amino-5-(2-(difluoromethyl)-6-methylpyridin-4-yl)-6-(4-fluorophenyl)pyrimidin-4-yl)oxy)methyl)-1-methyl-1H-imidazol-5-yl)-2-hydroxypropanoic acid]
